Assay results as given in patent publication US8372971B2, “Heterocyclic compounds and methods of use” (TargeGen, Inc., priority 2004, dated 2013).
Where a name gives a salt, the structure may show the parent alone. Read-outs that look alike come from different tables or passages of the source.

Experiments:
[1] = system: p-MEK and p-ERK levels in HUVECs; test: Western Blot, inhibition of MAPK pathway in cellular assay (Example 105); format: cell-based, human; details: 50 ng/ml VEGF or FGF
Description: Some compounds described by the general structure (B) were tested for inhibition of MAPK pathway in cellular assay. Western Blot: Early passage primary human umbilical vein endothelial cells (HUVECs) were maintained in EGM-2 containing SingleQuots (Cambrex, East Rutherford, N.J.), 10% FBS, 10 mM HEPES, and 50 μg/ml gentamicin. Prior to treatment of the cells with inhibitor, the HUVECs were starved for 18 h by replacing serum-containing complete media with serum-free and SingleQuot-free media. The starved cells were pre-treated with inhibitors for 60 min at various concentrations (0-20 μM). Next the HUVECs were treated with 50 ng/ml VEGF or FGF (Peprotech, Rocky Hill, N.J.) for 6 min and the cells were immediately washed with ice-cold PBS. Cells were lysed with ice-cold RIPA buffer containing 100 mM Tris pH 7.5, 150 mM NaCl, 1 mM EDTA, 1% deoxycholate, 1% Triton X-100, 0.1% SDS, 2 mM PMSF, one Complete-Mini protease inhibitor tablet (Roche, Indianapolis, Ind.; 1 tablet/7 ml of lysis buffer) and the phophatase inhibitors NaF (500 mM) and orthovanadate (1 mM). The cells were scraped and lysates transferred and centrifuged at 15,000 g for 10 main. Supernatants were transferred to new tubes and protein concentration was quantitated using the BCA protein reagent (Pierce, Rockford, Ill.). Cell lysates containing 20 μg of total protein were separated by 10% SDS-PAGE, transferred to nitrocellulose, and blocked in 5% milk in TBST. Anti phospho-ERK Thr 202/Tyr 204 (Cell Signaling, Beverly, Mass.), anti-phospho-MEK Ser217/221 (Cell Signaling), and c-Raf (BD Biosciences Pharmingen, San Diego, Calif.) used as primary antibodies were detected with horseradish peroxidase-conjugated goat anti-mouse or rabbit secondary antibodies and bands were visualized using the SuperSignal West Pico chemiluminescence reagent system (Pierce) and Kodak X-ray film (Rochester, N.Y.).

HUVECs = test: XTT cell viability assay (Example 106); format: cell-based, human; details: 72 hours, read-out: Inhibition of HUVEC cell prolifiration (IC50)
Description: Some compounds described by the general structure (B) were tested for cell viability. XTT assay: HUVECs were seeded at 10,000 cells/well of a tissue culture treated 96-well plate treated with collagen type I and grown overnight in the complete EGM-2 media as described above. The following morning, the inhibitors were serial diluted with DMSO and added to the cells with a final DMSO concentration of 1%. After 72 hours cell viability was measured with an XTT assay (Sigma, St. Louis, Mo.). The cells were also photographed to compare morphological differences to the XTT trends observed. Determination of the IC50 values was performed with quantitative software (Prism software package, GraphPad Software, San Diego Calif.).

| Structure (SMILES) | Western Blot ([1]; at 10 uM) | IC50 (HUVECs; Homo sapiens, HUVEC) [µM] | Western Blot ([1]; at 5 uM) | Western Blot ([1]; concentration not given) | IC50 (HUVECs) [µM] |
| --- | --- | --- | --- | --- | --- |
| O=C(Nc1nnc(-c2ccc(Oc3cccnc3)cc2)o1)c1ccc2c(c1)OC(F)(F)O2 [2,2-Difluoro-N-{5-[4-(pyridin-3-yloxy)phenyl]-1,3,4-oxadiazol-2-yl}-1,3-benzodioxole-5-carboxamide] | not active at 10 uM | > 40 |  |  |  |
| O=C(Nc1nnc(-c2ccc(Oc3cccnc3)cc2)o1)c1cc(C(F)(F)F)cc(Cl)c1F [3-Chloro-2-fluoro-N-{5-[4-pyridin-3-yloxy)phenyl]-1,3,4-oxadiazol-2-yl}-5-trifluoromethyl)-benzamide] | not active at 10 uM | > 40 |  |  |  |
| O=C(Nc1nnc(-c2ccc(Oc3cccnc3)cc2)o1)c1ccc(Br)cc1 [4-Bromo-N-{5-[4-(pyridin-3-yloxy)phenyl]-1,3,4-oxadiazol-2-yl}-benzamide] | not active at 10 uM | > 40 |  |  |  |
| O=C(Nc1nnc(-c2ccc(Oc3cccnc3)cc2)o1)c1ccc(F)c(C(F)(F)F)c1 [4-Fluoro-N-{5-[4-(pyridin-3-yloxy)phenyl]-1,3,4-oxadiazol-2-yl}-3-(trifluoromethyl)-benzamide] | active at 10 uM | ~20 |  |  |  |
| CNC(=O)c1cc(Oc2ccc(-c3nnc(Nc4ccc(Cl)c(C(F)(F)F)c4)o3)cc2)ccn1 [4-[4-(5-{[4-chloro-3-(trifluoromethyl)phenyl]amino}-1,3,4-oxadiazol-2-yl)phenoxy]-N-methylpyridine-2-carboxamide trifluoroacetate salt] |  | 5.6 | active at 5 uM |  |  |
| COc1ccc(C(=O)Nc2nnc(-c3ccc(Oc4cccnc4)cc3)o2)cc1C(F)(F)F [4-methoxy-N-{5-[4-(pyridin-3-yloxy)phenyl]-1,3,4-oxadiazol-2-yl}-3-(trifluoromethyl)-benzamide] | active at 10 uM | > 40 |  |  |  |
| CNC(=O)c1cc(Oc2ccc(-c3nnc(Nc4ccc(Cl)c(C(F)(F)F)c4)[nH]3)cc2)ccn1 [4-{4-[5-(4-chloro-3-trifluoromethyl-phenylamino)-4H-[1,2,4]triazol-3-yl]-phenoxy}-pyridine-2-carboxylic acid methylamide trifluoroacetic acid salt] | active at 10 uM | 2.85 |  |  |  |
| Br.Nc1nnc(-c2ccc(Oc3cccnc3)cc2)o1 [5-[4-(Pyridin-3-yloxy)phenyl]-1,3,4-oxadiazol-2-amine hydrobromide salt] | not active at 10 uM | > 40 |  |  |  |
| FC(F)(F)c1cccc(Nc2nnc(-c3ccc(Oc4cccnc4)cc3)o2)c1 [5-[4-(Pyridin-3-yloxy)phenyl]-N-[3-trifluoromethyl-phenyl]-1,3,4-oxadiazol-2-amine] | active at 10 uM | > 20 |  |  |  |
| Clc1ccc(Nc2nnc(-c3ccc(Oc4cccnc4)cc3)o2)cc1 [5-[4-(Pyridin-3-yloxy)phenyl]-N-[4-chloro-phenyl]-1,3,4-oxadiazol-2-amine] | active at 10 uM | 9.6 |  |  |  |
| FC(F)(F)c1cccc(Nc2nnc(-c3ccc(Oc4cncnc4)cc3)o2)c1 [5-[4-(Pyrimidin-5-yloxy)phenyl]-N-[3-(trifluoromethyl)phenyl]-1,3,4-oxadiazol-2-amine] |  | > 10 | active at 5 uM |  |  |
| Clc1cccc(Nc2nnc(-c3ccc(Oc4cncnc4)cc3)o2)c1 [5-[4-(Pyrimidin-5-yloxy)phenyl]-N-[3-chloro-phenyl]-1,3,4-oxadiazol-2-amine] |  | ~20 | active at 5 uM |  |  |
| Clc1ccc(Nc2nnc(-c3ccc(Oc4cncnc4)cc3)o2)cc1 [5-[4-(Pyrimidin-5-yloxy)phenyl]-N-[4-chloro-phenyl]-1,3,4-oxadiazol-2-amine] |  | > 20 | active at 5 uM |  |  |
| FC(F)(F)c1cc(-c2nnc(Nc3ccc(Oc4cccnc4)cc3)[nH]2)ccc1Cl [5-[4-chloro-3-(trifluoromethyl)phenyl]-N-[4-(pyridine-3-yloxy)phenyl]-4H-1,2,4-triazol-3-amine trifluoroacetate salt] |  | > 40 | active at 5 uM |  |  |
| FC(F)(F)c1cc(-c2nnc(Nc3ccc(Oc4cncnc4)cc3)[nH]2)ccc1Cl [5-[4-chloro-3-(trifluoromethyl)phenyl]-N-[4-(pyrimidin-5-yloxy)phenyl]-4H-1,2,4-triazol-3-anine trifluoroacetate salt] |  | > 10 | active at 5 uM |  |  |
| Nc1cc(Oc2ccc(-c3nnc(Nc4cccc(Cl)c4)o3)cc2)nc(N)n1 [6-(4-{5-[(3-chlorophenyl)amino]-1,3,4-oxadiazol-2-yl}phenoxy) pyrimidine-2,4-diamine] |  | ~20 | active at 5 uM |  |  |
| Nc1cc(Oc2ccc(-c3nnc(Nc4ccc(Cl)cc4)o3)cc2)nc(N)n1 [6-(4-{5-[(4-chlorophenyl)amino]-1,3,4-oxadiazol-2-yl}phenoxy) pyrimidine-2,4-diamine] |  | 2.6 | active at 5 uM |  |  |
| Nc1cc(Oc2ccc(-c3nnc(Nc4cccc(C(F)(F)F)c4)o3)cc2)nc(N)n1 [6-[4-(5-{[3-(trifluoromethyl)phenyl]amino}-1,3,4-oxadiazol-2-yl)phenoxy}pyrimidine-2,4-diamine] |  | > 10 | active at 5 uM |  |  |
| Nc1cc(Oc2ccc(-c3nnc(Nc4ccc(Cl)c(C(F)(F)F)c4)o3)cc2)nc(N)n1 [6-[4-(5-{[4-Chloro-3-trifluoromethyl-phenyl]amino}-1,3,4-oxadiazol-2-yl)-phenoxy]-pyrimidine-2,4-diamine] |  | 1.57 | active at 5 uM |  |  |
| Nc1cc(Oc2ccc(Nc3nnc(-c4ccc(OC(F)(F)F)cc4)[nH]3)cc2)nc(N)n1 [6-[4-({5-[4-(trifluoromethoxy)-phenyl-4H-1,2,4-triazol-3-yl}amino)phenoxy]pyrimidine-2,4-diamine] |  |  |  | not active | 6.58 |
| Nc1cc(Oc2ccc(Nc3nnc(-c4ccc(Cl)c(C(F)(F)F)c4)[nH]3)cc2)nc(N)n1 [6-[4-({5-[4-chloro-3-(trifluoromethyl)phenyl-4H-1,2,4-triazol-3-yl}amino)phenoxy]pyrimidine-2,4-diamine trifluoroacetate salt] |  | 9.57 | active at 5 uM |  |  |
| Nc1ccc(Oc2ccc(Nc3nnc(-c4ccc(Cl)c(C(F)(F)F)c4)[nH]3)cc2)nn1 [6-[4-({5-[4-chloro-3-(trifluoromethyl)phenyl]-4H-1,2,4-triazol-3-yl}amino)phenoxy]pyridazin-3-amine trifluoroacetate salt] |  | > 40 | active at 5 uM |  |  |
| Nc1cc(Oc2cccc(-c3nnc(Nc4ccc(Cl)c(C(F)(F)F)c4)[nH]3)c2)nc(N)n1 [6-{3-[5-(4-chloro-3-trifluoromethyl-phenylamino)-4H-[1,2,4]triazol-3-yl]-phenoxy}-pyrimidine-2,4-diamine trifluoroacetic acid salt] |  | 0.404 | active at 5 uM |  |  |
| Nc1cc(Oc2ccc(-c3nnc(Nc4ccc(Cl)c(C(F)(F)F)c4)[nH]3)cc2)nc(N)n1 [6-{4-[5-(4-chloro-3-trifluoromethyl-phenylamino)-4H-[1,2,4]-triazol-3-yl]-phenoxy}-pyrimidine-2,4-diamine] |  | 0.089 | active at 5 uM |  |  |
| FC(F)(F)c1cc(Nc2nnc(-c3cccc(Oc4ccncc4)c3)[nH]2)ccc1Cl [(4-chloro-3-trifluoromethyl-phenyl)-{5-[3-(pyridin-4-yloxy)-phenyl]-4H-[1,2,4]triazol-3-yl}-amine trifluoroacetic acid salt] |  | 1.79 | active at 5 uM |  |  |
| FC(F)(F)c1cc(Nc2nnc(-c3ccc(Oc4cccnc4)cc3)[nH]2)ccc1Cl [(4-chloro-3-trifluoromethyl-phenyl)-{5-[4-(pyridin-3-yloxy)-phenyl]-4H-[1,2,4]triazol-3-yl}-amine] |  | 1.81 | active at 5 uM |  |  |
| FC(F)(F)c1cc(Nc2nnc(-c3ccc(Oc4cccnc4)cc3)o2)ccc1Cl [N-[4-chloro-3-(trifluoromethyl)phenyl]-5-[4-(pyridin-3-yloxy)phenyl]-1,3,4-oxadiazol-2-amine trifluoroacetate salt] |  | 1.72 | active at 5 uM |  |  |
